This is an account of results in ChEMBL document CHEMBL4828757, “Further hit optimization of 6-(trifluoromethyl)pyrimidin-2-amine based TLR8 modulators: Synthesis, biological evaluation and structure-activity relationships” (Eur J Med Chem, 2021).

Assay type in all cases: cell-based
In series [1] the target is T1, Toll-like receptor 8 (Homo sapiens, UniProt Q9NR97).
T1 sequence (Q9NR97 whole entry): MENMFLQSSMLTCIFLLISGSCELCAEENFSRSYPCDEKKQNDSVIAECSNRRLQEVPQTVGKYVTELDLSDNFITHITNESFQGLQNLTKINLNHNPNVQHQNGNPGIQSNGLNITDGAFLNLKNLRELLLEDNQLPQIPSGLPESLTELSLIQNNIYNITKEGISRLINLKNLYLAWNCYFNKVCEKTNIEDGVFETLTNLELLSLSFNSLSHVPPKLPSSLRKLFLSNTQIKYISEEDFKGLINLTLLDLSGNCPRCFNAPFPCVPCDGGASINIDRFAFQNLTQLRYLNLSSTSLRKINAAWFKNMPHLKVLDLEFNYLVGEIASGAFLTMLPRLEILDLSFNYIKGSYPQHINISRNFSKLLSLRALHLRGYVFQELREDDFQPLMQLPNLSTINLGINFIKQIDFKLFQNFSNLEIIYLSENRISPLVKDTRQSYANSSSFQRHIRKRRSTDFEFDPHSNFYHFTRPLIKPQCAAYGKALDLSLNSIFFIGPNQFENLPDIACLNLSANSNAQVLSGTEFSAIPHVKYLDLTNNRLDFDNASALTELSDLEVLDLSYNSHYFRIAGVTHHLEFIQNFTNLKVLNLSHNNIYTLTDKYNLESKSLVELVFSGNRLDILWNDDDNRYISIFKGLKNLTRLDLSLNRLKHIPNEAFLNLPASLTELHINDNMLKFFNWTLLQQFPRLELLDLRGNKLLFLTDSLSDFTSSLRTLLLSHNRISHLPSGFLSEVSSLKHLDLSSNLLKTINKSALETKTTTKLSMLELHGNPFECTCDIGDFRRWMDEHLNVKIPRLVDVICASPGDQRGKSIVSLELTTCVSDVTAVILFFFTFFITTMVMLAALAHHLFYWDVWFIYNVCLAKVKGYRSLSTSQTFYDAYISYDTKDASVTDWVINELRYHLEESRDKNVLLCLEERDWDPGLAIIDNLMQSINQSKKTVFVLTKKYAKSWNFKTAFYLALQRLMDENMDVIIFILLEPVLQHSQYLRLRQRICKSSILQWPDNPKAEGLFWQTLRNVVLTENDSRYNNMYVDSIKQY
The experiment in a line: (§1) Negative modulator activity at human TLR8 expressed in HEK-Blue hTLR8 cells assessed as inhibition of TL8-506 stimulated NF-kappaB activation preincubated with compound for 1 hr followed by TL8-506 stimulation for 24 hrs by SEAP-based colorimetric assay.

Series [2] has as its target T2, Toll-like receptor 8 (Homo sapiens) (UniProt Q9NR97).
T2 sequence (whole entry): T1 sequence (Q9NR97 whole entry)
The description is as §1. Particulars: time 25.0 hrs.

A short description of series [3]: Cytotoxicity against human HEK-Blue hTLR8 cells assessed as reduction in cell viability at 50 uM by MTT assay. Particulars: for Activity: hek-blue htlr8, 50 µM. For orientation: Formazan colour is commonly taken as a measure of viable cells.
In series [4] the target is T2, Toll-like receptor 8 (Homo sapiens). Put plainly: Negative modulator activity at human TLR8 expressed in HEK-Blue hTLR8 cells assessed as inhibition of TL8-506 stimulated NF-kappaB activation at 25 uM preincubated with compound for 1 hr followed by TL8-506 stimulation for 24 hrs by SEAP-based colorimetric assay. Particulars: filed as modulator, time 25.0 hrs.
The target is the same in series [5]. Put plainly: Negative modulator activity at human TLR8 expressed in HEK-Blue hTLR8 cells assessed as inhibition of TL8-506 stimulated NF-kappaB activation at 10 uM preincubated with compound for 1 hr followed by TL8-506 stimulation for 24 hrs by SEAP-based colorimetric assay. Particulars: filed as modulator, time 25.0 hrs.
Series [6] can be described thus: Cytotoxicity against human PBMC cells assessed as reduction in cell viability at 10 uM incubated for 48 hrs by MTS assay.
A short description of series [7]: Cytotoxicity against human PBMC cells assessed as reduction in cell viability up to 50 uM incubated for 48 hrs by MTS assay.

Activity calls are given as the source filed them. The rule behind the calls is not given here.

As a reminder, the IC50 is the concentration that inhibits the measured activity by half. In the case of `Oc1cccc(CNc2nc(-c3ccccc3)cc(C(F)(F)F)n2)c1`, the IC50 result in series [1] (hek-blue htlr8) is listed as “Not Active”.
By inhibition is commonly meant the relative decrease from the control value, in per cent. For the compound `OCCNc1nc(-c2ccco2)cc(C(F)(F)F)n1`, in series [2], the inhibition entry is “inactive”.
For `FC(F)(F)c1cc(-c2ccco2)nc(NC2CCC2)n1`, the inhibition entry in series [2] was “inactive”.
Still for that read-out and setting: the entry for `CCCNc1nc(-c2ccco2)cc(C(F)(F)F)n1` is “inactive”.
For `c1coc(-c2ccnc(NCc3cccs3)n2)c1`, the inhibition entry in series [2] is “inactive”.
`C=CCNc1nc(-c2ccco2)cc(C(F)(F)F)n1`: the inhibition entry in series [2] is “inactive”.
As to `COc1ccc(-c2cc(C(F)(F)F)nc(NCc3cccs3)n2)cc1`, in series [2] (filed as modulator), the inhibition result was “Active”.
With `Oc1ccc(CNc2nc(-c3ccco3)cc(C(F)(F)F)n2)cc1`, the IC50 in series [1] (read-out: IC50) was 11 µM.
Take `Oc1cccc(CNc2nc(-c3ccco3)cc(C(F)(F)F)n2)c1`: the IC50 in series [1] (read-out: IC50) is 23 µM.
For `Cc1ccc(-c2cc(C(F)(F)F)nc(NCc3cccs3)n2)cc1`, in series [2] (filed as modulator), the inhibition entry was “Active”.
Turning to `NCc1ccc(CNc2nc(-c3ccco3)cc(C(F)(F)F)n2)cc1`, in series [3], the Activity result was “Toxic”. Further, in series [4], the inhibition turned out to be 75%.
In the case of `FC(F)(F)c1cc(-c2ccco2)nc(NCC2CC2)n1`, the inhibition entry in series [2] was “inactive”.
For `CC(C)Nc1nc(-c2ccco2)cc(C(F)(F)F)n1`, the inhibition entry in series [2] is “inactive”.
As for `FC(F)(F)c1cc(-c2ccccc2)nc(NCc2cccs2)n1`, the cytotoxicity at 50 µM in series [3] (HEK-Blue hTLR8 cells, read-out: INH) was 40%. Moreover, the results for the inhibition in series [4] and in series [5] were 60% and 50%, respectively.
For `COc1ccc(CNc2nc(-c3ccco3)cc(C(F)(F)F)n2)cc1`, in series [1] (hek-blue htlr8), the IC50 entry is “Not Active”.
Turning to `FC(F)(F)c1cc(-c2ccco2)nc(NCCc2ccccc2)n1`, the IC50 in series [1] (read-out: IC50) was over 100 µM.
`CS(=O)(=O)c1nc(-c2ccco2)cc(C(F)(F)F)n1`: the Activity entry in series [6] is “Toxic”.
Turning to `OCCOCCNc1nc(-c2ccco2)cc(C(F)(F)F)n1`, the inhibition entry in series [2] is “inactive”.
On to `Cc1cc(C(F)(F)F)nc(NCc2cccs2)n1`, for which the inhibition result in series [2] was “inactive”.
`OCc1cccc(CNc2nc(-c3ccco3)cc(C(F)(F)F)n2)c1`: in series [1] (hek-blue htlr8), the IC50 entry is “Not Active”.
As for `Oc1cccc(CNc2nc(C3CCCCC3)cc(C(F)(F)F)n2)c1`, the IC50 in series [1] (read-out: IC50) came to 22 µM.
Turning to `Cc1cc(-c2ccco2)nc(NCc2cccs2)n1`, the inhibition entry in series [2] (filed as modulator) is “Active”.
For the compound `FC(F)(F)c1cc(-c2ccco2)ncn1`, the inhibition result in series [2] is “inactive”.
Consider `OCc1ccc(CNc2nc(-c3ccco3)cc(C(F)(F)F)n2)cc1`, for which the Activity result in series [7] was “Non-Toxic”.
Consider `FC(F)(F)c1cc(-c2ccco2)nc(NCc2ccccc2)n1`, for which, in series [1] (read-out: IC50), the IC50 was over 100 µM.
Take `FC(F)(F)c1cc(-c2ccco2)nc(Nc2ccccc2)n1`: the IC50 in series [1] (read-out: IC50) worked out at 77 µM.
For the compound `FC(F)(F)c1cc(-c2ccco2)nc(NC2CCCC2)n1`, in series [2], the inhibition entry is “inactive”.
On to `CC(C)CNc1nc(-c2ccco2)cc(C(F)(F)F)n1`, for which the inhibition result in series [2] is “inactive”.
For `FC(F)(F)c1cc(-c2ccco2)nc(NC2CCCCC2)n1`, the inhibition result in series [2] was “inactive”.
Regarding `COc1cccc(CNc2nc(-c3ccco3)cc(C(F)(F)F)n2)c1`, in series [1] (hek-blue htlr8), the IC50 result was “Not Active”.
Consider `CCNc1nc(-c2ccco2)cc(C(F)(F)F)n1`, for which the inhibition entry in series [2] is “inactive”.
Regarding `O=C(O)c1ccc(CNc2nc(-c3ccco3)cc(C(F)(F)F)n2)cc1`, in series [1] (hek-blue htlr8), the IC50 entry is on record as “Not Active”.
For `CS(=O)(=O)c1nc(-c2ccccc2)cc(C(F)(F)F)n1`, the IC50 result in series [1] (hek-blue htlr8) is listed as “Not Active”.
Consider `FC(F)(F)c1cc(-c2ccco2)nc(NCCN2CCOCC2)n1`, for which the inhibition result in series [2] was “inactive”.
Take `NCc1cccc(CNc2nc(-c3ccco3)cc(C(F)(F)F)n2)c1`: the Activity result in series [3] is “Toxic”. In addition, the inhibition in series [4] was 50%.
As to `CCCCNc1nc(-c2ccco2)cc(C(F)(F)F)n1`, the inhibition entry in series [2] was “inactive”.
Regarding `FC(F)(F)c1cc(-c2ccco2)nc(NC2CC2)n1`, the inhibition result in series [2] is “inactive”.
Consider `CCCCCCNc1nc(-c2ccco2)cc(C(F)(F)F)n1`, for which the inhibition result in series [2] was “inactive”.
For the compound `FC(F)(F)c1cc(C2CCCCC2)nc(NCc2cccs2)n1`, the inhibition entry in series [2] was “inactive”.
On the same count and under the same terms, the entry for `FC(F)(F)c1ccnc(NCc2cccs2)n1` is “inactive”.
